Earlier results in patent US20070275092A1, “Therapeutic composition supporting the immune system” (priority 2005, published 2007).

Details: per day

[Zn] [zinc]
dosage well tolerated but with potential side effects such as anemia (attributable to copper deficiency): 200 mg
